Structures can show the parent of a compound that is named as a salt. Where two headings read alike, the source gives them in different places.

The values that follow come from patent publication US20130150376A1, “Novel Sultam Compounds” (PFIZER INC., priority 2010, published 2013).

The experiment has as its target T1, BACE1 enzyme (soluble, truncated BACE enzyme, BACE1deltaTM96His) (Homo sapiens, UniProt P56817).
T1 construct: soluble, truncated BACE enzyme (BACE1deltaTM96His); His; made in house
Briefly: BACE1 Fluorescent Polarization (FP) Assay. In kind it is biochemical. The following applies: geometric mean of 2-4 IC50 determinations unless footnoted (^2: 5-6 determinations; ^4: single determination). The method in brief:
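Soluble truncated His-tagged BACE1 (BACE1deltaTM96His, from CHO-K1 conditioned media; 0.1 nM final) with biotinylated Oregon green peptide substrate (150 nM final), in 100 mM sodium acetate pH 4.5, 0.001% Tween-20. Compounds in ½ log series from 100 μM top; 3 h at 37° C. Stopped with streptavidin; cleavage read as Δ mP fluorescence polarization (Ex485/Em530).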

The mark [1] stands for this setting: 8-point curve, read-out: BACE activity, 8-point curve, IC50.
[2] abbreviates: 11-point curve, read-out: BACE activity, 11-point curve, IC50.

T1 sequence (P56817 46-457): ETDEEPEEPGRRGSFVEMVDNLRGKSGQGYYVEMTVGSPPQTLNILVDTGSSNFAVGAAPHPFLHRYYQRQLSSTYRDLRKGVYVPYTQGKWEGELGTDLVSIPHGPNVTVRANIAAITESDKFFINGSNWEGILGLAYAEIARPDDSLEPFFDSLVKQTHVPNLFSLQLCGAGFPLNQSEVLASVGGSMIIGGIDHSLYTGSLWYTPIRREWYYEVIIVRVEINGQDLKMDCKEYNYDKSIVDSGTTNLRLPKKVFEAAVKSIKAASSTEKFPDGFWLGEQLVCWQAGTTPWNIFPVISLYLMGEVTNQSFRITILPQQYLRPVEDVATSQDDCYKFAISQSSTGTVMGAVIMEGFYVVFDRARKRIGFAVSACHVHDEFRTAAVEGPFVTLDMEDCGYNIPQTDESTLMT

One may read the IC50 as the concentration that gives 50% inhibition. With `Cc1ccccc1-c1cc(CN2CC[C@]3(CCS(=O)(=O)N3c3cccc(F)c3)C[C@@H]2C)ccc1O` [Example 62, 5-{[(5R,7S)-1-(3-fluorophenyl)-7-methyl-2,2-dioxido-2-thia-1,8-diazaspiro[4.5]dec-8-yl]methyl-2′-methylbiphenyl-2-ol, hydrochloride salt], the IC50 reads like this: under setting [1], 0.019 µM; under setting [2], 0.0333 µM.
Consider `C[C@H]1C[C@@]2(C=CS(=O)(=O)N2c2cccc(F)c2)CCN1Cc1ncoc1C1CCOC1` (stereo partly drawn) [Example 71, (5R,7S)-1-(3-fluorophenyl)-7-methyl-8-{[5-(tetrahydrofuran-3-yl)-1,3-oxazol-4-yl]methyl}-2-thia-1,8-diazaspiro[4.5]dec-3-ene 2,2-dioxide], for which the IC50 is, setting by setting: under setting [1], 1.29 µM; under setting [2], 2.49 µM.
Turning to `CC(C)Oc1cccc(CN2CC[C@@]3(C[C@@H]2C)C(=O)C(C)(C)S(=O)(=O)N3c2cccc(F)c2)c1` [Example 64, (5R,7S)-1-(3-fluorophenyl)-8-(3-isopropoxybenzyl)-3,3,7-trimethyl-2-thia-1,8-diazaspiro[4.5]decan-4-one 2,2-dioxide, hydrochloride salt], the IC50 under setting [2] was 25.7 µM.
Regarding `C[C@H]1C[C@@]2(C=CS(=O)(=O)N2c2cccc(F)c2)CCN1Cc1ccc(O)c(C(F)(F)F)c1` [Example 16, 4-{[(5R,7S)-1-(3-fluorophenyl)-7-methyl-2,2-dioxido-2-thia-1,8-diazaspiro[4.5]dec-3-en-8-yl]methyl}-2-(trifluoromethyl)phenol, hydrochloride salt], the IC50 under setting [1] stood at 0.322 µM.
On the same count and under the same terms, the figure for `C[C@H]1C[C@@]2(C=CS(=O)(=O)N2c2cccc(F)c2)CCN1Cc1ccc(O)c(OC(F)(F)F)c1` [Example 10, 4-{[(5R,7S)-1-(3-fluorophenyl)-7-methyl-2,2-dioxido-2-thia-1,8-diazaspiro[4.5]dec-3-en-8-yl]methyl}-2-(trifluoromethoxy)phenol, hydrochloride salt] is 0.181 µM.
For the molecule `Cc1cncc(-c2ncsc2CN2CC[C@]3(C=CS(=O)(=O)N3c3cccc(F)c3)C[C@@H]2C)c1` [Example 49, (5R,7S)-1-(3-fluorophenyl)-7-methyl-8-{[4-(5-methylpyridin-3-yl)-1,3-thiazol-5-yl]methyl}-2-thia-1,8-diazaspiro[4.5]dec-3-ene 2,2-dioxide, hydrochloride salt], the IC50 by setting is: under setting [1], 6.72 µM; under setting [2], 15.2 µM.
For `C[C@H]1C[C@@]2(C=CS(=O)(=O)N2c2cccc(F)c2)CCN1Cc1ncoc1-c1cccnc1` [Example 22, (5R,7S)-1-(3-fluorophenyl)-7-methyl-8-[(5-pyridin-3-yl-1,3-oxazol-4-yl)methyl]-2-thia-1,8-diazaspiro[4.5]dec-3-ene 2,2-dioxide, hydrochloride salt], the IC50 under setting [1] worked out at 0.414 µM.
As to `Cc1cncc(-c2ocnc2CN2CC[C@]3(CCS(=O)(=O)N3c3cccc(F)c3)C[C@@H]2C)c1` [Example 57, (5R,7S)-1-(3-fluorophenyl)-7-methyl-8-{[5-(5-methylpyridin-3-yl)-1,3-oxazol-4-yl]methyl}-2-thia-1,8-diazaspiro[4.5]decane 2,2-dioxide, hydrochloride salt], under setting [2], the IC50 stood at 4.08 µM.
On the same count and under the same terms, the figure for `C[C@H]1C[C@@]2(C=CS(=O)(=O)N2c2cccc(F)c2)CCN1Cc1ncoc1-c1cccs1` [Example 34, (5R,7S)-1-(3-fluorophenyl)-7-methyl-8-{[5-(2-thienyl)-1,3-oxazol-4-yl]methyl}-2-thia-1,8-diazaspiro[4.5]dec-3-ene 2,2-dioxide, hydrochloride salt] is 5.89 µM; for `C[C@H]1C[C@@]2(C=CS(=O)(=O)N2c2cccc(F)c2)CCN1Cc1ccc(O)c(C2CCC2)c1` [Example 75, 2-cyclobutyl-4-{[(5R,7S)-1-(3-fluorophenyl)-7-methyl-2,2-dioxido-2-thia-1,8-diazaspiro[4.5]dec-3-en-8-yl]methyl}phenol] it is 0.0418 µM.
In the case of `C[C@H]1C[C@@]2(C=CS(=O)(=O)N2c2cccc(F)c2)CCN1Cc1scnc1-c1cncnc1` [Example 43, (5R,7S)-1-(3-fluorophenyl)-7-methyl-8-[(4-pyrimidin-5-yl-1,3-thiazol-5-yl)methyl]-2-thia-1,8-diazaspiro[4.5]dec-3-ene 2,2-dioxide], the half-inhibitory concentration (IC50) by setting is: under setting [1], 0.975 µM; under setting [2], 8.25 µM.
On the same counts, the results for `Cc1ncsc1-c1ocnc1CN1CC[C@]2(C=CS(=O)(=O)N2c2cccc(F)c2)C[C@@H]1C` [Example 36, (5R,7S)-1-(3-fluorophenyl)-7-methyl-8-{[5-(4-methyl-1,3-thiazol-5-yl)-1,3-oxazol-4-yl]methyl}-2-thia-1,8-diazaspiro[4.5]dec-3-ene 2,2-dioxide] are 2.51 µM and 6.29 µM.
Regarding `COC1=CS(=O)(=O)N(c2cccc(F)c2)[C@@]12CCN(Cc1ccc(O)c(-c3nscc3C)c1)[C@@H](C)C2` [Example 86, 4-{[(5R,7S)-1-(3-fluorophenyl)-4-methoxy-7-methyl-2,2-dioxido-2-thia-1,8-diazaspiro[4.5]dec-3-en-8-yl]methyl}-2-(4-methylisothiazol-3-yl)phenol, ammonium salt], the 50% inhibitory concentration (IC50) under setting [2] worked out at 0.117 µM.
`C[C@H]1C[C@]2(CCN1Cc1ncoc1C1CCCO1)CCS(=O)(=O)N2c1cccc(F)c1` (mixture of isomers) [Example 80, (5R,7S)-1-(3-fluorophenyl)-7-methyl-8-{[5-(tetrahydrofuran-2-yl)-1,3-oxazol-4-yl]methyl}-2-thia-1,8-diazaspiro[4.5]decane 2,2-dioxide]: under setting [2], the IC50 was determined as 6.46 µM.
